Experimental data published in patent US20160002248A1, “GLS1 INHIBITORS FOR TREATING DISEASE” (Board of Regents, The University of Texas System, priority 2014, published 2016).

Assays:
A549 cells = test: Proliferation Assay (A549 cell viability, Cell Titer Fluor); assay type: cell-based; details: Homo sapiens, 72 hours
Description: A549 cells were routinely maintained in RPMI 1640 media (Gibco catalog number 11875-093) supplemented with 10% dialyzed fetal bovine serum using a humidified incubator (37° C., 5% CO2 and ambient O2). In preparation for the viability assay, cells were inoculated into 384-well black CulturPlates (Perkin Elmer) at a density of 1000 cells/well in a volume of 40 uL. Following a 24-hour incubation at 37° C., 5% CO2 and ambient O2, cells were treated with compound (10 uL) in a final DMSO concentration of 0.5% (v/v). The microplates were then incubated for 72 hours (37° C., 5% CO2 and ambient O2). Cell Titer Fluor (Promega) was subsequently added (10 uL of 6× reagent) and mixed for 15 minutes at room temperature. The plates were then incubated for 30 minutes (37° C., 5% CO2 and ambient O2) and fluorescence was subsequently read on the Perkin Elmer Envision plate reader. EC50 values were calculated using a four-parameter logistic curve fit.

[1] = target: T1, purified recombinant human GAC (GLS1) (Homo sapiens, UniProt O94925); test: GLS1 Enzymatic Activity Assay (dual-coupled enzymatic assay); assay type: biochemical
T1 sequence (O94925 55-598 isoform O94925-3 limits assumed): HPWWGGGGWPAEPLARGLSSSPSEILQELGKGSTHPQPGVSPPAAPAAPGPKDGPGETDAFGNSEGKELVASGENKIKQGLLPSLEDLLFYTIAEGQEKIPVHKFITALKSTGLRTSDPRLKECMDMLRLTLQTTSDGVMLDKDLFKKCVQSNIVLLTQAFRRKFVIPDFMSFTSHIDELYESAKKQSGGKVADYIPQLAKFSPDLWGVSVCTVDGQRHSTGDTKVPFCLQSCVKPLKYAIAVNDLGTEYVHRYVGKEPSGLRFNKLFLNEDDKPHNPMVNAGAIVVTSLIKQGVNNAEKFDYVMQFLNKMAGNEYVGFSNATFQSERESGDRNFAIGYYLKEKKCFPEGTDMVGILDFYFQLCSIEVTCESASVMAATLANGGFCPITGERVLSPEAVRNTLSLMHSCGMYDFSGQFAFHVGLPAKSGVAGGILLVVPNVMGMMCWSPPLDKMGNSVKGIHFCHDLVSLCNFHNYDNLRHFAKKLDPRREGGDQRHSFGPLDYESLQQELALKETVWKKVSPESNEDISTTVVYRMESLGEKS
Description: GLS1 Enzymatic Activity Assay
The inhibition of purified recombinant human GAC by varying concentrations of inhibitors is assessed via a dual-coupled enzymatic assay. The glutamate produced by the glutaminase reaction is used by glutamate oxidase to produce α-ketoglutarate, ammonia, and hydrogen peroxide, with this hydrogen peroxide subsequently being used by horseradish peroxidase to produce resorufin in the presence of Amplex UltraRed. The assay buffer consisted of 50 mM Hepes (pH 7.4), 0.25 mM EDTA and 0.1 mM Triton X-100. GAC was incubated with potassium phosphate (10 minutes at room temperature) prior to incubation with inhibitor (10 minutes at room temperature). The final reaction conditions were as follows: 2 nM GAC, 50 mM potassium phosphate, 100 mU/mL glutamate oxidase (Sigma), 1 mM glutamine (Sigma), 100 mU/mL horseradish peroxidase (Sigma), 75 μM Amplex UltraRed (Life Technologies), and 1% (v/v) DMSO. The production of resorufin was monitored on a Perkin Elmer Envision plate reader (excitation 530 nm, emission 590 nm) either in a kinetics or endpoint mode (at 20 minutes). IC50 values were calculated using a four-parameter logistic curve fit.

EC50 (A549 cells) | IC50 [1] | Compound
100 to 500 nM | < 100 nM | CC(C)(O)C(=O)N1CC(c2cc3cc(CCCCn4cc(C(=O)NCc5cc(OC(F)(F)F)ccc5F)nn4)nnc3[nH]2)C1 [Example 133, N-{[2-fluoro-5-(trifluoromethoxy)phenyl]methyl}-1-(4-{6-[1-(2-hydroxy-2-methylpropanoyl)azetidin-3-yl]-7H-pyrrolo[2,3-c]pyridazin-3-yl}butyl)-1H-1,2,3-triazole-4-carboxamide]
500 to 5000 nM | < 100 nM | O=C(NCc1ccccn1)c1cn(CCCCc2cc3c(-c4cccc(Cl)c4)c(C4CC4)[nH]c3nn2)nn1 [Example 116, 1-{4-[5-(3-chlorophenyl)-6-cyclopropyl-7H-pyrrolo[2,3-c]pyridazin-3-yl]butyl}-N-(pyridin-2-ylmethyl)-1H-1,2,3-triazole-4-carboxamide]
 | 500 to 5000 nM | O=C(Cc1ccccc1)Nc1nnc(CCCCc2cnc3[nH]c(Cc4ccccc4)nc3c2)s1 [Example 23, N-(5-(4-(2-benzyl-3H-imidazo[4,5-b]pyridin-6-yl)butyl)-1,3,4-thiadiazol-2-yl)-2-phenylacetamide]
500 to 5000 nM | < 100 nM | NS(=O)(=O)c1cccc(-c2c(C3CC3)[nH]c3nnc(CCCCn4cc(C(=O)NCc5cccc(OC(F)(F)F)c5)nn4)cc23)c1 [Example 181, 1-{4-[6-cyclopropyl-5-(3-sulfamoylphenyl)-7H-pyrrolo[2,3-c]pyridazin-3-yl]butyl}-N-{[3-(trifluoromethoxy)phenyl]methyl}-1H-1,2,3-triazole-4-carboxamide]
500 to 5000 nM | < 100 nM | N#Cc1cccc(Cc2c(C3CC3)[nH]c3nnc(CCCCn4cc(C(=O)NCc5ccccn5)nn4)cc23)c1 [Example 103, 1-(4-{5-[(3-cyanophenyl)methyl]-6-cyclopropyl-7H-pyrrolo[2,3-c]pyridazin-3-yl}butyl)-N-(pyridin-2-ylmethyl)-1H-1,2,3-triazole-4-carboxamide]
100 to 500 nM | < 100 nM | Cc1ccc(CNC(=O)c2cn(CCCCc3cc4cc(-c5ccc(OC(F)(F)F)cc5)[nH]c4nn3)nn2)cn1 [Example 182, N-[(6-methylpyridin-3-yl)methyl]-1-(4-{6-[4-(trifluoromethoxy)phenyl]-7H-pyrrolo[2,3-c]pyridazin-3-yl}butyl)-1H-1,2,3-triazole-4-carboxamide]
100 to 500 nM | < 100 nM | COc1cccnc1-c1c(C2CC2)[nH]c2nnc(CCCCn3cc(C(=O)NCc4cccc(OC(F)(F)F)c4)nn3)cc12 [Example 178, 1-{4-[6-cyclopropyl-5-(3-methoxypyridin-2-yl)-7H-pyrrolo[2,3-c]pyridazin-3-yl]butyl}-N-{[3-(trifluoromethoxy)phenyl]methyl}-1H-1,2,3-triazole-4-carboxamide]
100 to 500 nM | < 100 nM | O=C(NCc1cc(OC(F)(F)F)ccc1F)c1cn(CCCCc2cc3cc(C4CN(C(=O)C5CC(F)(F)C5)C4)[nH]c3nn2)nn1 [Example 226, 1-(4-{6-[1-(3,3-difluorocyclobutanecarbonyl)azetidin-3-yl]-7H-pyrrolo[2,3-c]pyridazin-3-yl}butyl)-N-{[2-fluoro-5-(trifluoromethoxy)phenyl]methyl}-1H-1,2,3-triazole-4-carboxamide]
< 100 nM | < 100 nM | Cc1ccc(CNC(=O)c2cn(CCCCc3cc4c(-c5ccc6c(c5)OCO6)c(C5CC5)[nH]c4nn3)nn2)cn1 [Example 146, 1-{4-[5-(2H-1,3-benzodioxol-5-yl)-6-cyclopropyl-7H-pyrrolo[2,3-c]pyridazin-3-yl]butyl}-N-[(6-methylpyridin-3-yl)methyl]-1H-1,2,3-triazole-4-carboxamide]
500 to 5000 nM | < 100 nM | N#CCC(=O)N1CC(c2cc3cc(CCCCn4cc(C(=O)NCc5cc(OC(F)(F)F)ccc5F)nn4)nnc3[nH]2)C1 [Example 140, 1-(4-{6-[1-(2-cyanoacetyl)azetidin-3-yl]-7H-pyrrolo[2,3-c]pyridazin-3-yl}butyl)-N-{[2-fluoro-5-(trifluoromethoxy)phenyl]methyl}-1H-1,2,3-triazole-4-carboxamide]
500 to 5000 nM | < 100 nM | N#Cc1ccc(-c2c(C3CC3)[nH]c3nnc(CCCCn4cc(C(=O)NCc5ccccn5)nn4)cc23)cc1 [Example 124, 1-{4-[5-(4-cyanophenyl)-6-cyclopropyl-7H-pyrrolo[2,3-c]pyridazin-3-yl]butyl}-N-(pyridin-2-ylmethyl)-1H-1,2,3-triazole-4-carboxamide]
100 to 500 nM | < 100 nM | O=C(NCc1cc(OC(F)(F)F)ccc1F)c1cn(CCCCc2cc3cc(C4CN(C(=O)C5CC5)C4)[nH]c3nn2)nn1 [Example 224, 1-{4-[6-(1-cyclopropanecarbonylazetidin-3-yl)-7H-pyrrolo[2,3-c]pyridazin-3-yl]butyl}-N-{[2-fluoro-5-(trifluoromethoxy)phenyl]methyl}-1H-1,2,3-triazole-4-carboxamide]
100 to 500 nM | < 100 nM | O=C(NCc1ccccn1)c1cn(CCCCc2cc3c(Cc4ccc(Cl)cc4)c(C4CC4)[nH]c3nn2)nn1 [Example 106, 1-(4-{5-[(4-chlorophenyl)methyl]-6-cyclopropyl-7H-pyrrolo[2,3-c]pyridazin-3-yl}butyl)-N-(pyridin-2-ylmethyl)-1H-1,2,3-triazole-4-carboxamide]
 | 500 to 5000 nM | CC(C)(O)CNC(=O)c1nnc(CCCCc2cc3cc(Cc4ccccc4)[nH]c3nn2)s1 [Example 71, 5-(4-{6-benzyl-7H-pyrrolo[2,3-c]pyridazin-3-yl}butyl)-N-(2-hydroxy-2-methylpropyl)-1,3,4-thiadiazole-2-carboxamide]
 | 500 to 5000 nM | O=C(NCc1ccccn1)c1cn(CCCCc2cc3c4c([nH]c3nn2)CCC4)nn1 [Example 142, N-(pyridin-2-ylmethyl)-1-(4-(5,6,7,8-tetrahydrocyclopenta[4,5]pyrrolo[2,3-c]pyridazin-3-yl)butyl)-1H-1,2,3-triazole-4-carboxamide]
 | 500 to 5000 nM | Nc1nnc(CCCCc2cnc3[nH]c(Cc4ccccc4)nc3c2)s1 [Example 22, 5-(4-(2-benzyl-3H-imidazo[4,5-b]pyridin-6-yl)butyl)-1,3,4-thiadiazol-2-amine]
 | < 100 nM | O=C(Cc1cccnc1)Nc1nnc(CCCCc2cc3cc(Cc4ccccc4)[nH]c3nn2)s1 [Example 57, N-[5-(4-{6-benzyl-7H-pyrrolo[2,3-c]pyridazin-3-yl}butyl)-1,3,4-thiadiazol-2-yl]-2-(pyridin-3-yl)acetamide]
 | 500 to 5000 nM | O=C(NCc1ccccc1)c1cn(CCCCc2cc3cc[nH]c3nn2)nn1 [Example 11, 1-(4-(7H-pyrrolo[2,3-c]pyridazin-3-yl)butyl)-N-benzyl-1H-1,2,3-triazole-4-carboxamide]
 | 500 to 5000 nM | O=C(Cc1ccccc1)Nc1nnc(CCCCCc2cc3cc(Cc4ccccc4)[nH]c3nn2)s1 [Example 7, N-(5-(5-(6-benzyl-7H-pyrrolo[2,3-c]pyridazin-3-yl)pentyl)-1,3,4-thiadiazol-2-yl)-2-phenylacetamide]
 | 500 to 5000 nM | Nc1ccn(CCCCc2cc3cc(C4CC4)[nH]c3nn2)c(=O)c1 [Example 31, 4-amino-1-(4-{6-cyclopropyl-7H-pyrrolo[2,3-c]pyridazin-3-yl}butyl)-1,2-dihydropyridin-2-one]
 | 500 to 5000 nM | O=C(NCc1ccccn1)c1cn(CCCCc2cc3cc[nH]c3nn2)nn1 [Example 25, 1-(4-(7H-pyrrolo[2,3-c]pyridazin-3-yl)butyl)-N-(pyridin-2-ylmethyl)-1H-1,2,3-triazole-4-carboxamide]
 | 500 to 5000 nM | Nc1nnc(CCCCc2cc3cc[nH]c3nn2)s1 [Example 1, 5-(4-(7H-pyrrolo[2,3-c]pyridazin-3-yl)butyl)-1,3,4-thiadiazol-2-amine]
 | 100 to 500 nM | O=C(NCc1cccc(OC(F)(F)F)c1)c1cn(CCCCc2cc3c(C4=CCNCC4)c(C4CC4)[nH]c3nn2)nn1 [Example 199, 1-{4-[6-cyclopropyl-5-(1,2,3,6-tetrahydropyridin-4-yl)-7H-pyrrolo[2,3-c]pyridazin-3-yl]butyl}-N-{[3-(trifluoromethoxy)phenyl]methyl}-1H-1,2,3-triazole-4-carboxamide]
